Test system: SW480 cell line
Assay: Cell metabolism of phenolic compounds (UHPLC-HR-MS analysis of cell media)
Type: in vitro ADME, Human
Method: To analyze the metabolism of phenolic compounds by Caco-2 and SW480 cells, the cell culture media were withdrawn after 0, 24, 48 and 72 h of incubation. Phenolic compounds were extracted from the culture media by following the procedure reported in Sala et al.. Briefly, 100 μL of cold methanol was mixed with 100 μL of cell media and vortexed for 1 min. The mixture was then centrifuged at 10,000× g (4 °C, 5 min) and the supernatant was injected, after appropriate dilution, in an ultra-high-performance liquid chromatography high-resolution mass spectrometry system (UHPLC-HR-MS).
The HR-MS system consisted of a UHPLC Ultimate 3000 separation module, equipped with a C18 column (Acquity UPLC HSS C18 reversed phase, 2.1 × 100 mm, 1.8 μm particle size, Waters, Milan, Italy) and coupled with a Q Exactive Hybrid Quadrupole-Orbitrap Mass Spectrometer (Thermo Scientific, San Jose, CA, USA). Mobile phases consisted of a mixture of water containing formic acid (0.1%) (mobile phase A) and acetonitrile containing formic acid (0.1%) (mobile phase B). The gradient began at 1% B, reaching 40% B over 20 min. To wash the column, the mobile phase B concentration was raised to 99% over 6 min and kept at 99% for 3 min before returning to the initial conditions. The MS and MS/MS conditions are fully described in Martini et al..
Quantification was carried out by building external calibration curves with the available standard compounds.

[1] = SW480, 24 h, substrate 3,5-di-O-Caffeoylquinic acid 50 μmol/L
[2] = SW480, 48 h, substrate 3,5-di-O-Caffeoylquinic acid 50 μmol/L
[3] = SW480, 72 h, substrate 3,5-di-O-Caffeoylquinic acid 50 μmol/L
[4] = SW480, 24 h, substrate Quercetin 50 μmol/L
[5] = SW480, 48 h, substrate Quercetin 50 μmol/L
[6] = SW480, 48 h, substrate Quercetin-3-O-glucoside-4′-O-glucoside 50 μmol/L
[7] = SW480, 48 h, substrate Quercetin-4′-O-glucoside 50 μmol/L
[8] = SW480, 72 h, substrate Quercetin 50 μmol/L
[9] = SW480, 72 h, substrate Quercetin-3-O-glucoside-4′-O-glucoside 50 μmol/L
[10] = SW480, 72 h, substrate Quercetin-4′-O-glucoside 50 μmol/L
[11] = SW480, 24 h, substrate 3-O-Caffeoylquinic acid trans 50 μmol/L
[12] = SW480, 48 h, substrate 3-O-Caffeoylquinic acid trans 50 μmol/L
[13] = SW480, 48 h, substrate 5-O-Caffeoylquinic acid trans 50 μmol/L
[14] = SW480, 72 h, substrate 3-O-Caffeoylquinic acid trans 50 μmol/L
[15] = SW480, 72 h, substrate 5-O-Caffeoylquinic acid trans 50 μmol/L
[16] = SW480, 24 h, substrate 5-O-Caffeoylquinic acid trans 50 μmol/L

| Concentration of newly formed metabolite [1] | Concentration of newly formed metabolite [2] | Concentration of newly formed metabolite [3] | Concentration of newly formed metabolite [11] | Concentration of newly formed metabolite [12] | Concentration of newly formed metabolite [13] | Concentration of newly formed metabolite [14] | Concentration of newly formed metabolite [15] | Concentration of newly formed metabolite [16] | Structure (SMILES) | also measured |
| --- | --- | --- | --- | --- | --- | --- | --- | --- | --- | --- |
| 910 ± 30 nM | 660 ± 30 nM | 550 ± 10 nM |  |  |  |  |  |  | O=C(/C=C/c1ccc(O)c(O)c1)OC1C(O)CC(OC(=O)/C=C/c2ccc(O)c(O)c2)(C(=O)O)CC1O (stereo not shown) [1,4-di-O-Caffeoylquinic acid] |  |
|  |  |  |  |  |  |  |  |  | COc1cc(-c2oc3cc(O)cc(O)c3c(=O)c2O)ccc1O [Isorhamnetin] | Concentration of newly formed metabolite [4]: 1610 ± 10 nM; Concentration of newly formed metabolite [5]: 3460 ± 80 nM; Concentration of newly formed metabolite [6]: 10 ± 0 nM; Concentration of newly formed metabolite [7]: 790 ± 30 nM; Concentration of newly formed metabolite [8]: 3760 ± 110 nM; Concentration of newly formed metabolite [9]: 10 ± 0 nM; Concentration of newly formed metabolite [10]: 1030 ± 40 nM |
|  |  |  |  |  |  |  |  |  | COc1ccc(-c2oc3cc(O)cc(O)c3c(=O)c2O)cc1O [4′-O-methylquercetin] | Concentration of newly formed metabolite [4]: 970 ± 40 nM; Concentration of newly formed metabolite [5]: 1650 ± 40 nM; Concentration of newly formed metabolite [6]: 10 ± 0 nM; Concentration of newly formed metabolite [7]: 490 ± 10 nM; Concentration of newly formed metabolite [8]: 1830 ± 250 nM; Concentration of newly formed metabolite [9]: 10 ± 0 nM; Concentration of newly formed metabolite [10]: 710 ± 40 nM |
|  |  | 1070 ± 10 nM | 440 ± 10 nM | 430 ± 10 nM | 80 ± 0 nM | 570 ± 10 nM | 90 ± 10 nM |  | O=C(O)/C=C/c1ccc(O)c(O)c1 [Caffeic acid] |  |
| 70 ± 10 nM | 120 ± 10 nM | 250 ± 10 nM | 6890 ± 60 nM | 8070 ± 240 nM | 14800 ± 90 nM | 12020 ± 240 nM | 11930 ± 30 nM | 12690 ± 120 nM | O=C(/C=C/c1ccc(O)c(O)c1)OC1[C@H](O)CC(O)(C(=O)O)C[C@H]1O (stereo partly drawn) [4-O-Caffeoylquinic acid trans, 4-O-Caffeoylquinic acid] |  |
| 3300 ± 50 nM | 2200 ± 20 nM | 1710 ± 30 nM |  |  |  |  |  |  | O=C(/C=C/c1ccc(O)c(O)c1)O[C@@H]1[C@H](O)C[C@@](O)(C(=O)O)C[C@H]1OC(=O)/C=C/c1ccc(O)c(O)c1 [4,5-di-O-Caffeoylquinic acid] |  |
|  |  |  |  |  | 970 ± 50 nM |  | 1420 ± 10 nM |  | O=C(/C=C/c1ccc(O)c(O)c1)O[C@@H]1C[C@](O)(C(=O)O)C[C@@H](O)[C@H]1O [5-O-Caffeoylquinic acid cis, 5-O-Caffeoylquinic acid] |  |
|  |  |  | 20 ± 0 nM | 40 ± 0 nM | 50 ± 0 nM | 70 ± 0 nM | 40 ± 0 nM | 40 ± 0 nM | COc1cc(/C=C/C(=O)OC2C(O)CC(O)(C(=O)O)CC2O)ccc1O (stereo not shown) [4-O-Feruloylquinic acid] |  |

| Structure (SMILES) | Concentration of newly formed metabolite [1] | Concentration of newly formed metabolite [2] | Concentration of newly formed metabolite [3] | Concentration of newly formed metabolite [11] | Concentration of newly formed metabolite [12] | Concentration of newly formed metabolite [13] | Concentration of newly formed metabolite [14] | Concentration of newly formed metabolite [15] | Concentration of newly formed metabolite [16] | also measured |
| --- | --- | --- | --- | --- | --- | --- | --- | --- | --- | --- |
| COc1cc(/C=C/C(=O)O)ccc1O [Ferulic acid] |  |  |  |  |  | 330 ± 10 nM |  | 370 ± 10 nM | 60 ± 20 nM |  |

Reference: paper PMC10418599, “Quercetins, Chlorogenic Acids and Their Colon Metabolites Inhibit Colon Cancer Cell Proliferation at Physiologically Relevant Concentrations” (International Journal of Molecular Sciences, 2023)
